In brackets after ≈: the same amount, converted by molar mass. Like-named read-outs stand apart in the source and are kept apart here. Where a SMILES comes first, the peptide text is derived from it. Bridges are numbered along the chain shown (N, C = ends). Where no end group is shown, it is not given here.
Tests used:
[1] = test system: P. aeruginosa strain H1001
Experimental: (§1) The mucoid bioluminescent P. aeruginosa strain Xen05 was purchased from Caliper life Sciences, Inc. The nonmucoid bioluminescent strain H1001 was the kind gift of Robert Hancock (University of British Columbia, Vancouver, BC, Canada). Both strains were stored as glycerol stocks at −80 °C. Recombinant hLYS and freeze‐dried Micrococcus luteus were purchased from Sigma Millipore (Burlington, MA, USA). Protegrin 1 AMP (PTG1) and HB71 peptides (> 95% purity) were obtained from Peptide 2.0. LL‐37, Melittin, and Tet009 peptides (> 95% purity) were purchased from GenScript (Piscataway, NJ, USA). Human beta defensin 3 AMP (hBD3) peptide was purchased from AnaSpec. Peptide stock solutions were stored at −20 °C. All other reagents and materials were purchased from Fisher Scientific (Waltham, MA, USA).
(§2) We analyzed the dose–response potency of each AMP against both strains via a well‐validated luminescence assay. Hundred microlitre of exponential phase cells (5 × 10^6 cells/mL) in dextrose/tris (DT) buffer (20 mM dextrose, 100 mM Tris, pH 7.4) were incubated with a 1 : 2 dilution series of each AMP in white, flat‐bottomed, 96‐well plates at 37 °C for 4 h. Culture luminescence was then quantified by imaging with a CCD camera (Bio‐Rad ChemiDoc XRS System, Hercules, CA, USA). Measurements were normalized to the no‐treatment controls on the same plate, and potency was quantified by a 3‐parameter logistic regression of luminescence versus AMP concentration, yielding EC50 values (Fig. S1). Importantly, the luminescence of these P. aeruginosa strains is known to correlate with bacterial viability. Assays were done in technical triplicate or quadruplicate and repeated at least twice.

[2] = test system: P. aeruginosa strain Xen05
Experimental: as §1, §2

[3] = test system: P. aeruginosa strain H1001; type: cell-based, Pseudomonas aeruginosa; conditions: for Interaction with hLYS against nonmucoid strain H1001: class by FICI, checkerboard with hLYS
Experimental: (§3) Checkerboard, or 2‐D MIC, assays were performed analogous to the single agent dose–response studies above, except that 1 : 2 serial dilutions of hLYS were made across the rows of a 96‐well plate, and 1 : 2 serial dilutions of the AMP were made down the columns of the same plate, such that each well contained a unique concentration mixture of the two agents. Controls without treatment (growth control) and without bacteria (sterility control) were included on all plates. Assays were repeated as three independent trials (biological replicates), and results are the average of all measurements.
(§4) To quantify antibacterial interactions, fractional inhibitory concentrations (FIC) and FIC index values (FICI) were calculated as described elsewhere, though in this case using EC50 values in place of conventional growth/no growth visual observations. Briefly, the FIC for one agent is the ratio of its […]. The corresponding FIC values for the two agents in each row and column, respectively, of a checkerboard plate may be summed, and the lowest FIC sum on the plate is designated the FICI.
(§5) Based on the EC50 values of AMP monotherapies, we designed checkerboard assays wherein antibacterial interactions between hLYS and each AMP were quantified. Classical drug interactions such as synergy, additivity, or antagonism manifest characteristic trends across a given checkerboard assay plate, where FICI < 0.5 is defined as synergy, 0.5 ≤ FICI < 4 is defined as additivity, and FICI ≥ 4 is defined as antagonism. Nonclassical interactions, as observed in some of our checkerboard results, might include a concentration‐dependent switch from synergy (or additivity) to antagonism. In extreme cases, we observed inversion of the dose–response curves for specific combinations and concentration ranges of our antibacterial agents, as discussed below.

[4] = test system: P. aeruginosa strain Xen05; type: cell-based, Pseudomonas aeruginosa; conditions: for Interaction with hLYS against mucoid strain Xen05: class by FICI, checkerboard with hLYS
Experimental: as §3, §4, §5

[5] = Fig. S1 panels G-L, N, single agent dose response, technical triplicate or quadruplicate, repeated at least twice
[6] = single agent, luminescence, DT buffer (20 mM dextrose, 100 mM Tris, pH 7.4), 5 × 10^6 cells/mL, 37 °C, 4 h, 3-parameter logistic regression, technical triplicate or quadruplicate, repeated at least twice
[7] = Fig. S1 panels A-F, M, single agent dose response, technical triplicate or quadruplicate, repeated at least twice
[8] = AMP combined with hLYS, FIC from EC50 values (50% luminescence reduction), lowest FIC sum on plate, three independent trials

Compound | 95% confidence intervals for EC50 values, H1001 [1, 5] | EC50 H1001 [1, 6] | 95% confidence intervals for EC50 values, Xen05 [2, 7] | EC50 Xen05 [2, 6] | FICI H1001 [3, 8] | FICI Xen05 [4, 8] | 95% confidence intervals for EC50 values, H1001 ([1]; strain H1001, 4 h) | EC50 H1001 ([1]; strain H1001, 4 h, pH 7.4) | 95% confidence intervals for EC50 values, Xen05 ([2]; strain Xen05, 4 h) | EC50 Xen05 ([2]; strain Xen05, 4 h, pH 7.4) | Interaction with hLYS against nonmucoid strain H1001 [3] | Interaction with hLYS against mucoid strain Xen05 [4]
CC[C@H](C)[C@H](NC(=O)[C@H](CCCCN)NC(=O)[C@H](CCC(=O)O)NC(=O)[C@H](CCCCN)NC(=O)[C@H](CO)NC(=O)[C@H](CCCCN)NC(=O)[C@H](CCCNC(=N)N)NC(=O)[C@H](Cc1ccccc1)NC(=O)[C@H](Cc1ccccc1)NC(=O)[C@H](CC(=O)O)NC(=O)CNC(=O)[C@H](CC(C)C)NC(=O)[C@@H](N)CC(C)C)C(=O)NCC(=O)N[C@@H](CCCCN)C(=O)N[C@@H](CCC(=O)O)C(=O)N[C@@H](Cc1ccccc1)C(=O)N[C@@H](CCCCN)C(=O)N[C@@H](CCCNC(=N)N)C(=O)N[C@H](C(=O)N[C@H](C(=O)N[C@@H](CCC(N)=O)C(=O)N[C@@H](CCCNC(=N)N)C(=O)N[C@H](C(=O)N[C@@H](CCCCN)C(=O)N[C@@H](CC(=O)O)C(=O)N[C@@H](Cc1ccccc1)C(=O)N[C@@H](CC(C)C)C(=O)N[C@@H](CCCNC(=N)N)C(=O)N[C@@H](CC(N)=O)C(=O)N[C@@H](CC(C)C)C(=O)N[C@H](C(=O)N1CCC[C@H]1C(=O)N[C@@H](CCCNC(=N)N)C(=O)N[C@H](C(=O)N[C@@H](CCC(=O)O)C(=O)N[C@@H](CO)C(=O)O)[C@@H](C)O)C(C)C)[C@@H](C)CC)C(C)C)[C@@H](C)CC [LL37] | 5.7 to 6.6 µg/mL | 6.1 µg/mL (≈ 1.36 µM) | 4.8 to 5.1 µg/mL | 5.0 µg/mL (≈ 1.11 µM) | 0.5 ± 0.2 | 0.5 ± 0.2 |  |  |  |  |  | 
CC(C)C[C@H](NC(=O)[C@H](CCCNC(=N)N)NC(=O)CNC(=O)CNC(=O)[C@@H](N)CCCNC(=N)N)C(=O)N[C@H]1CSSC[C@@H](C(=O)N[C@H](C(=O)NCC(=O)N[C@@H](CCCNC(=N)N)C(=O)O)C(C)C)NC(=O)[C@H](C(C)C)NC(=O)[C@@H]2CSSC[C@H](NC(=O)[C@H](Cc3ccc(O)cc3)NC1=O)C(=O)N[C@@H](CCCNC(=N)N)C(=O)N[C@@H](CCCNC(=N)N)C(=O)N[C@@H](CCCNC(=N)N)C(=O)N[C@@H](Cc1ccccc1)C(=O)N2 [PTG‐1] (H-RGGRLCYCRRRFCVCVGR-OH; disulfide 6-15, 8-13 (inferred); N-terminus and C-terminus assumed) |  |  |  |  |  |  | 1.6 to 1.8 µg/mL | 1.7 µg/mL (≈ 0.788 µM) | 1.1 to 1.2 µg/mL | 1.1 µg/mL (≈ 0.51 µM) | synergy (FICI < 0.5 is defined as synergy) | synergy (FICI < 0.5 is defined as synergy)
FAKKLAKKLKKLAKKLAK [HB71] |  | 2.6 µg/mL | 1.4 to 1.8 µg/mL | 1.6 µg/mL |  |  |  |  |  |  |  | 
GIINTLQKYYCRVRGGRCAVLSCLPKEEQIGKCSTRGRKCCRRKK (disulfide 11-40, 18-33, 23-41 (inferred)) [hBD3] |  |  |  |  |  |  | 6.9 to 7.1 µg/mL | 7.0 µg/mL | 5.5 to 6.5 µg/mL | 6.0 µg/mL | synergy (FICI < 0.5 is defined as synergy) | additivity (0.5 ≤ FICI < 4 is defined as additivity)
RRWKIVVIRWRR [Tet009] | 2.5 to 2.9 µg/mL | 2.7 µg/mL | 1.4 to 1.5 µg/mL | 1.5 µg/mL |  |  |  |  |  |  |  | 
human lysozyme [hLYS] | 700 to 1100 µg/mL | 890 µg/mL | 800 to 1200 µg/mL | 990 µg/mL |  |  |  |  |  |  |  | 
